Two compounds from patent publication US6867305B2, “Synthesis of epothilones, intermediates thereto and analogues thereof” (Sloan-Kettering Institute for Cancer Research, priority 1996, dated 2005) can be followed below.

Data set [1] has as its system MX-1 human mammary carcinoma. As to the kind of experiment: Tumor cell growth inhibition in vitro. The data set is classed as cell-based. How it is done:
(§1) The cells were cultured at an initial density of 2-5×10^4 cells per ml. […] For solid tumor cells growing in a monolayer (such as MCF-7/Adr), cytotoxicitiy of the drug was determined in 96-well microtiter plates by using the sulforhodamine B method as described by Skehan et al (23) for measuring the cellular protein content. For cells that were grown in suspension (such as CCRF-CEM and its sublines), cytotoxicitiy was measured by using the 2,-3-bis(2-methoxy-4-nitro-5-sulfophenyl)-5carboxanilide)-2H terazodium hydroxide (XTT)-microculture tetrazonium method (24) in duplicate in 96-well microtiter plates. For both methods, the absorbance of each well was measured with a microplate reader (EL-340, Bio-Tek, Burlington, Vt.). Each run entailed six or seven concentrations of the tested drugs. Dose-effect relationship data were analyzed with the median-effect plot (25) by using a previously described computer program (26).

Data set [2] relates to MX-1 mammary carcinoma xenograft. Particulars: MX-1, i.p., ref 19 (Table 4).
Data set [3] in a line: Body-weight decrease and lethality in tumor-bearing nude mice. Particulars: nude mice. The procedure: (§2) Depending on the tumor type, treatment started on day 10 to day 21 when subcutaneous tumor size reached 35-200 mm^3, except otherwise indicated. Tumor size and body-weight were recorded every other day (Q2D) and, for humane reasons, the animals were sacrificed when tumor size reached ≧10% of body-weight. Each group, including untreated control, consisted of 3-5 animals unless otherwise indicated.
Essential features of useful cancer therapeutic agent involve not only high efficiency against cancer but also low toxicity toward the host, especially toward vital organs or functions [i.e. wide therapeutic window or high therapeutic index (LD50/ED50)].
(§3) Human tumor cells (5×10^6) or tumor tissue (30-50 mg) were implanted s.c. flank in nu/nu mice (Charles River Laboratories, Wilmington, Mass.). When tumor grew to a specified size, treatment was started by every-other day×5 with 6 hr i.v.-infusion, unless otherwise indicated. Tumor volume was measured with calipers in three dimensions (length×width×height or width). Body-weight changes and lethality were monitored every other day.

For another data set, the system named is B16 Melanoma. The data set is classed as in vivo, murine. Particulars: B16 Melanoma, i/p, maximal tolerated doses.
Data set [4] deals with UL-3-B/Taxol.
Data set [5] deals with UL-3-C ovarian adenocarcinoma. As to the kind of experiment: Tumor cell growth inhibition in vitro. The data set is classed as cell-based, human. The procedure:
(§4) The fresh medium containing each drug was replenished every 7-14 days. […] In each case ,the drug-exposed cells were resuspended in fresh media for a minimum of 4 days before the experiments for the cell-growth inhibition was carried out.
(§5) The cells were cultured at an initial density of 2-5×10^4 cells per ml. They were maintained in a 5% CO2-humidified atmosphere at 37° C. in RPMI mediun 1640 (GIBCO/BRL) containing penicillin (100 units/ml), streptomycin (100 μg/ml) (GIBCO/BRL), and 5% heat-inactivated fetal bovine serum. For solid tumor cells growing in a monolayer (such as MCF-7/Adr), cytotoxicitiy of the drug was determined in 96-well microtiter plates by using the sulforhodamine B method as described by Skehan et al (23) for measuring the cellular protein content. For cells that were grown in suspension (such as CCRF-CEM and its sublines), cytotoxicitiy was measured by using the 2,-3-bis(2-methoxy-4-nitro-5-sulfophenyl)-5carboxanilide)-2H terazodium hydroxide (XTT)-microculture tetrazonium method (24) in duplicate in 96-well microtiter plates. For both methods, the absorbance of each well was measured with a microplate reader (EL-340, Bio-Tek, Burlington, Vt.). Each run entailed six or seven concentrations of the tested drugs. Dose-effect relationship data were analyzed with the median-effect plot (25) by using a previously described computer program (26).

The subject of data set [6] is UL-3-B/Taxol. As to the kind of experiment: cells. Particulars: Homo sapiens, UL-3-B/Taxol.
Another data set has as its system MCF-7/Adr. Put plainly: Tumor cell growth inhibition in vitro. To be noted: Homo sapiens, NCI/ADR-RES, MCF-7/Adr. The format is cell-based, human. How it is done:
as §1

Data set [7] deals with MCF-7 human mammary adenocarcinoma. Put plainly: Tumor cell growth inhibition in vitro. The format is cell-based. Particulars: Homo sapiens, MCF7, MCF-7; read-out: IC50. How it is done: as §1
In data set [8] the test system is A549 lung carcinoma xenograft. Put plainly: Human tumor xenograft in nude mice. Particulars: A549, i.v. infusion. The data set is classed as in vivo. How it is done:
as §2
(§6) Athymic nude mice bearing the nu/nu gene were used for all human tumor xenografts. Outbred, Swiss-background mice were obtained from Charles River Laboratories. Male mice 8 weeks or older weighing 22 g and up were used for most experiments. The drug was administered via the tail vein for 6 hr.-i.v. infusion. Each individual mouse was confined in a perforated Falcon polypropylene tube restrainer for drug administration. Tumor volume was assessed by measuring length×width×height (or width) using a caliper. The programmable Harvard PHD2000 syringe pump (Harvard Apparatus) with multi-track was used for i.v. infusion. […] All animal studies were conducted in accordance with the guidelines of the National Institutes of Health “Guide for the Care and Use of Animals” and the protocol approved by the Memorial Sloan-Kettering Cancer Center's Institutional Animal Care and Use Committee. In keeping with the policy of this committee for the humane treatment of tumor-bearing animals, mice were euthanized when tumors reached ≧10% of their total body weight.
as §3
In general terms: A xenograft is tissue or cells of one species grown in another, often human tumour cells in immunodeficient mice.

The test system of data set [9] is PC-3 prostate adenocarcinoma xenograft. Put plainly: Human tumor xenograft in nude mice. To be noted: PC-3, i.v. infusion. The format is in vivo. How it is done:
as §2, §6, §3

Data set [10] has as its system K562 chronic myelocytic leukemia xenograft. As to the kind of experiment: Human tumor xenograft in nude mice. The data set is classed as in vivo. How it is done: FIG. 34 depicts tumor size in nude mice bearing human leukemia […] tumor following 6 mg/kg C-15-Aza-EpoB, Q2D×6 and 30 mg/kg dEpoF, Q2ED×6 (i.v. infusion […].). K562 tumor cells (1×10^7 in 0.2 mL) were inoculated to nude mice on day 0. Mice were treated with 6 mg/kg aza-EpoB, 6 h-i.v. infusion on days 20, 22, 24, 26, 28 and 30 (Δ, n=3). The same group of mice were then treated with 30 mg/kg dEpoF, 6 h-i.v. infusion on days 42, 44, 46, 48, 52, and 54 (Δ, n=3). […] The control mice (∘, n=3) received vehicle only.
K562 tumor cells (1×10^7, in 0.2 ml/mouse) were implanted s.c. on day 0. […] The control mice (∘, n=4) received vehicle, Cremophor-ethanol (1:1), only. The vertical bars indicate mean tumor size in mm^3±S.E.
as §2, §6, §3

In the next data set the test system is CCRF-CEM/VBL1000. As to the kind of experiment: Cell growth inhibition, resistant subline. The format is cell-based. Particulars: Homo sapiens. The procedure:
as §4, §5

A further data set deals with CCRF-CEM/VBL. Put plainly: Relative potency in vitro, very highly resistant MDR cells. The format is cell-based, human. Particulars: Homo sapiens, CCRF-CEM, read-out: CCRF-CEM/VBL IC50 in μM. The procedure: as §5
In data set [11] the test system is MCF-7/Adr mammary xenograft. Put plainly: Human tumor xenograft in nude mice. The data set is classed as in vivo. To be noted: i.v. infusion.

Counter-ions that a name gives are not always drawn. Like-named read-outs stand apart in the source and are kept apart here.

`C/C(=C\c1csc(C)n1)[C@@H]1C[C@@H]2O[C@]2(C)CCC[C@H](C)[C@H](O)[C@@H](C)C(=O)C(C)(C)[C@@H](O)CC(=O)O1` [EpoB, epothilone B, reference compound]: the values for the IC50 (in data set [1]; in the data set on UL-3-B/Taxol [4] (UL-3-B/Taxol); in [5] (read-out: IC50)) were 1.84 nM, 1.24 nM and 0.58 nM, respectively. In addition, the “Therapeutic Effect Rank Order” value is “dEpoB>Camptothecin>Taxol>VBL, EpoB” in data set [2] and “dEpoB>Taxol>>EpoB” in the data set with B16 Melanoma. Further, the “drop in body-weight that led to lethality” value in [3] is 14-20%. The “cross-resistance (fold of resistance vs parent cell line)” value in the data set on UL-3-B/Taxol [4] (UL-3-B/Taxol vs UL-3-C) is reported as 2.1 x.
On to `CC[C@]1(O)C[C@@H]2CN(CCc3c([nH]c4ccccc34)[C@@](C(=O)OC)(c3cc4c(cc3OC)N(C)[C@H]3[C@@](O)(C(=O)OC)[C@H](OC(C)=O)[C@]5(CC)C=CCN6CC[C@]43[C@@H]65)C2)C1` [Vinblastine, vinblastine sulfate, reference compound], for which the IC50 with UL-3-B/Taxol [6] came to 3.1 nM; with MCF-7/Adr it was 25 nM; in [7], 9.4 nM; in the data set with CCRF-CEM/VBL1000, 974 nM; in data set [5] (Homo sapiens), 0.37 nM; with CCRF-CEM/VBL it was 2.02 µM. Further, the “Therapeutic Effect Rank Order” value in data set [2] is “dEpoB>Camptothecin>Taxol>VBL, EpoB”; in [8] it was “Taxol, dEpoB, VBL>VP-16”; in data set [9] it was “Taxol, VBL>dEpoB>>VP-16”; in data set [10] (K562, i.v. infusion, FIG. 3 & 4), “dEpoB>>>VBL> Taxol> Adriamycin”; in data set [11], “dEpoB>>VP-16, Taxol>VBL, Adriamycin”. For the same compound, in [10] (K562, dEpoB 30 mg/kg, Taxol 20 mg/kg 6 hr i.v. infusion, Adriamycin 3 mg/kg, vinblastine 2.5 mg/kg i.v., every other day from day 20 (FIG. 36)), the therapeutic effect entry is on record as “only partial curative or remissive effects”.
